Reference: patent publication US7658941B2, “Warming and nonirritating lubricant compositions and method of comparing irritation” (Johnson & Johnson Consumer Companies, Inc., priority 2002, dated 2010)

Assays:
[1] = Generation of warmth by mixing equal quantity with water; assay type: physicochemical; conditions: for Actual Temperature (° F.) / Rise in Temperature (° F.) (Expected Minus Actual): 20 ml mixed with 20 ml of water for two minutes
Experimental: The temperature of the product and that of water were recorded before water was added to the product. After the addition of water the mixture was mixed for two minutes and the actual temperature was recorded. Glycerin, Propylene Glycol and Honey are the ingredients in Composition 1. It is clear from Table 1 that when mixed with water the temperature of the mixture rises by 9.0° F for Glycerin, 13.5° F. for Propylene Glycol, 17.0° F. for Polyethylene Glycol 400 and 12.5° F. for composition Example 1 of this invention.
Calculated Rise in Temperature: In order to determine the expected rise in temperature from each composition, the percentage of each component in such composition was multiplied by the temperature increase generated by such component alone to obtain its expected contribution to the temperature increase. These values were added together to calculate the total expected temperature rise. These values were then compared with the actual temperature rise generated by each composition. For example, the calculated rise in temperature generated by the “K-Y Warming®”, composition in the table above was found as follows and compared with the actual temperature rise to determine the unexpectedly higher generation of warmth of the composition:
Compositions 10, 11 and 12 were tested in accordance with the following procedure to determine the extent to which said compositions generate warmth upon mixture with water. Data was generated by mixing 20 ml of each composition with 20 ml of water. The temperature of the composition and that of water were recorded before water was added to the composition After the addition of water the contents were mixed for two minutes and the actual temperature was recorded.

[2] = tested on: epithelial cells derived from human skin; assay type: cell-based
Experimental: The method designated as EpiDerm™ Skin Model assay uses the epithelial cells derived from human skin as target cells and is commercially available from the MatTek Corporation. […] The test materials are applied directly to the epithelial cell culture surface. […] The toxicity of the test material is evaluated on the basis of relative tissue viability vs time. The actual Tissue Viability is determined by NAD(P)H-dependent microsomal enzyme reduction of MTT in control and test article treated cultures. The negative control used in this assay was deionized water and the positive control was Triton X-100. The exposed cell cultures were incubated for 4, 8, 16 and 24 hours and assayed for reduction of MTT. […] Relative irritation in this assay is expressed by the percent survival rate of epiderm cells over a period of 24 hours. Products with higher relative survival rates are less toxic or less irritating while the ones with lower survival rates are more toxic or irritating.
The data is plotted as % Viable Cells vs the Exposure Time ranging from 4 to 24 hours.

Molecule | Actual Temperature (° F.) [1] | Rise in Temperature (° F.) (Expected Minus Actual) [1] | expected contribution of component to the temperature increase ([1]; in K-Y Warming (Composition 1)) | expected contribution of component to the temperature increase ([1]; in Composition 10) | % viable cells [2]
OCC(O)CO [Glycerin] | 79.0 ° F. | 9.0 ° F. | 4.05 | – | –
CCCCCCCCCCCCCC(=O)OC(C)C [Isopropyl Myristate] | 75.2 ° F. | 0.7 ° F. | – | – | –
CC(O)CO (stereo not drawn) [Propylene Glycol] | 85.2 ° F. | 13.5 ° F. | 6.75 | 5.13 | –
Polysorbate 60 | 83.1 ° F. | 10.6 ° F. | – | – | –
Triton X-100 | – | – | – | – | 22.4%
